Source: patent US20170239330A1, “FORMULATIONS FOR HISTATIN THERAPEUTICS” (RAPID PATHOGEN SCREENING, INC., priority 2014, published 2017)

Legend:
[1] = tested on: cultured ocular epithelial cells; conditions: in vitro; cited from earlier work
[2] = Stability of ocular histatin formulation determined by mass spectroscopy; assay type: physicochemical; conditions: 100 μg/mL in gel tears lubricating eye drop with 0.25% PEG in aqueous buffered borate salt solution
Experimental: In some embodiments, the ocular histatin formulation is stable both at room temperature (25° C.) and at 45° C. for at least 90 days.

Time formulation found stable, by mass spectroscopy ([2]; 25° C.) | Time formulation found stable, by mass spectroscopy ([2]; 45° C.) | Substance | Cytotoxicity to cultured ocular epithelial cells [1]
 |  | Benzalkonium chloride | significant cytotoxicity
at least 505 days | at least 90 days | cyclo(DNLPETGGDSHEKRHHGYRRKFHEKHHSHREFPFYGDYGSNYLY) [cyclized histatin 1] | 
